Columns and labels:
[1] = test system: hairless Guinea pigs; assay: Evaluation of the increase of moisture content in the skin (Corneometer, acetone-damaged skin barrier); assay type: in vivo; conditions: flank, 200 μl applied after 30 min acetone patch; for moisture content of the stratum corneum, 6 h after sample application: relative to content directly after acetone treatment = 100, 6 h; for moisture content of the stratum corneum, 12 h after sample application: relative to content directly after acetone treatment = 100, 12 h; for moisture content of the stratum corneum, 24 h after sample application: relative to content directly after acetone treatment = 100, 24 h; for moisture content of the stratum corneum, 48 h after sample application: relative to content directly after acetone treatment = 100, 48 h
Protocol: The degree of the increase of moisture content in the skin was measured for the compounds obtained in the Examples. The increase of moisture content in the skin was measured by dividing 50 hairless Guinea pigs into 10 groups, and applying the compounds obtained in the Examples to each group.
Specifically, after the skin barrier was damaged by patching acetone using Finn chamber for 30 minutes to the flank site of the experiment animals, 200 μl of each experimental substance was applied to the patched site, then the moisture content of the stratum corneum of the site was measured using Corneometer and then evaluated. Apparatus measurements were carried out directly after and 6 hours, 12 hours, 24 hours and 48 hours after removing the acetone patch. Changes of moisture content in the skin were evaluated relative to the content measured directly after the acetone treatment, which was set to be 100.

[2] = Evaluation of moisture retaining ability in dry conditions (weight change, 18° C., RH 20%); assay type: physicochemical; conditions: initial moisture content 60%, constant temperature and humidity chamber 18° C.
Protocol: Moisture retaining ability was evaluated and compared for the compounds obtained in the Examples.
Specifically, samples were prepared such that the moisture content of the compounds obtained in the Examples was 60%, and while the samples were kept in a constant temperature and humidity chamber (18° C., RH 20%), the weight change of the samples was observed over time, thereby enabling evaluation of the changes in moisture content.

Row | moisture content of sample, 1 h [2] [%] | moisture content of sample, 2 h [2] [%] | moisture content of sample, 4 h [2] [%] | moisture content of sample, 6 h [2] [%] | Compound | moisture content of the stratum corneum, 6 h after sample application [1] | moisture content of the stratum corneum, 12 h after sample application [1] | moisture content of the stratum corneum, 24 h after sample application [1] | moisture content of the stratum corneum, 48 h after sample application [1]
1 | 57 | 50 | 41 | 25 | OCC(O)CO [Glycerol, reference compound] | 109 | 113 | 115 | 117
2 | 58 | 52 | 44 | 29 | pentaerythritol ethoxylate (15/4 EO/OH) glycolic ester ethoxylate cetyl ether (pentaerythritol ethoxylate (15/4 EO/OH) ceteth-10 carboxylate) [Example 38] | 108 | 111 | 112 | 114
3 | 57 | 55 | 50 | 43 | pentaerythritol ethoxylate (15/4 EO/OH) glycolic ester ethoxylate hexyl ether (pentaerythritol ethoxylate (15/4 EO/OH) hexeth-4 carboxylate) [Example 29] | 106 | 109 | 111 | 109
4 | 58 | 56 | 49 | 45 | pentaerythritol ethoxylate (15/4 EO/OH) glycolic ester ethoxylate lauryl ether (pentaerythritol ethoxylate (15/4 EO/OH) laureth-6 carboxylate) [Example 34] | 105 | 110 | 116 | 114

Second part, the compound before the results:

Row | Compound | moisture content of sample, 1 h [2] [%] | moisture content of sample, 2 h [2] [%] | moisture content of sample, 4 h [2] [%] | moisture content of sample, 6 h [2] [%] | moisture content of the stratum corneum, 6 h after sample application [1] | moisture content of the stratum corneum, 12 h after sample application [1] | moisture content of the stratum corneum, 24 h after sample application [1] | moisture content of the stratum corneum, 48 h after sample application [1]
5 | pentaerythritol ethoxylate (3/4 EO/OH) glycolic ester ethoxylate cetyl ether (pentaerythritol ethoxylate (3/4 EO/OH) ceteth-4 carboxylate) [Example 22] | 56 | 52 | 48 | 43 | 100 | 105 | 109 | 115
6 | pentaerythritol ethoxylate (3/4 EO/OH) glycolic ester ethoxylate octyl ether(pentaerythritol ethoxylate (3/4 EO/OH) capreth-4 carboxylate) [Example 17] | 57 | 53 | 47 | 38 | 103 | 106 | 108 | 104
7 | pentaerythritol ethoxylate (15/4 EO/OH) glycolic ester ethoxylate stearyl ether (pentaerythritol ethoxylate (15/4 EO/OH) steareth-10 carboxylate) [Example 42] | – | – | – | – | 106 | 110 | 109 | 111
8 | pentaerythritol glycolic ester ethoxylate cetyl ether (pentaerythritol ceteth-10 carboxylate) [Example 10] | 58 | 57 | 50 | 44 | 101 | 105 | 109 | 113
9 | pentaerythritol glycolic ester ethoxylate lauryl ether (pentaerythritol laureth-4 carboxylate) [Example 5] | 58 | 55 | 49 | 41 | 98 | 99 | 103 | 105

From patent US8501807B2, “Pentaerythritol derivatives” (priority 2004, dated 2013)
